# Measured values reported in patent publication US20250177392A1, “BROAD SPECTRUM INHIBITORS OF CYTOMEGALOVIRUS” (MICROBIOTIX, INC., priority 2022, published 2025).
# pIC50: −log10 of the molar value.
# Key:
# [1] = test system: MCMV Smith; experiment: Herpes virus panel neutralization, MCMV; assay type: cell-based, Murine cytomegalovirus
# Description: (§1) To determine the specificity of MBX-4992, additional neutralization experiments were conducted using a panel of herpes viruses performed in the presence of MBX-4992. […] Collectively, the antiviral activity of MBX-4992 is equivalent to that of GCV indicating specific inhibition of CMV replication.
# [2] = test system: AD169^R; experiment: Cells pre-incubation / washout study; assay type: cell-based, Human cytomegalovirus
# Description: (C) NHDF cells were pre-incubated with DMSO, MBX-4992 or heparin prior to virus addition. After addition of AD169^R (MOI 0.2) for 30 min, media was either unchanged or replaced with media containing DMSO, MBX-4992, or heparin. Virus infection was quantified at 24 hpi by GFP fluorescence. Percent infection was normalized to untreated cells. Statistical tests were performed using ordinary one-way ANOVA with multiple comparisons to DMSO treated cells as a control and a Dunnett's post-test: *, p<0.05; ****, p<0.0001.
# NHDF cells (10^4) plated overnight in a 96-well plate were pretreated with MBX-4992 (10 μM), heparin (50 μg/mL) or DMSO for 1 hour at 37° C. The plate was then placed at 4° C. for 5 minutes followed by the addition of AD169^R CMV virus for 30 minutes. 2/3rd of the samples were aspirated post binding. Half of those samples received DMSO media, regardless of the drug the cells were previously exposed to. The remaining wells received either MBX-4992 (10 μM) or Heparin (50 μg/mL) overnight. At 18 hpi, the cells were fixed with 4% paraformaldehyde, stained with a rabbit anti-IE1 antibody followed by an anti-rabbit Alexa 647, and analyzed using the Celigo cytometer. The DMSO condition that was not aspirated post binding was set as 100% infection.
# We next examined whether pre-treating cells with MBX-4992 can limit virus infection. Cells were pre-treated with MBX-4992 or heparin for […] followed by the addition of AD169^R for 30 min at 4° C. The cells were either washed out or unchanged as indicated and replaced with media containing DMSO, MBX-4992, or heparin followed by incubation at 37° C. At 18 hpi, virus infection was evaluated using a Celigo cytometer.
# [3] = test system: GpCMV 22122; experiment: Herpes virus panel neutralization, GpCMV; assay type: cell-based, Guinea pig cytomegalovirus
# Description: as §1
# [4] = test system: HSV-1 E-377; experiment: Herpes virus panel neutralization, HSV-1; assay type: cell-based, Herpes simplex virus 1
# Description: as §1
compound,measurement,setting,value
Cc1nc(Nc2ccc(NC(=O)c3ccco3)cc2)cc(N2CCCC2)n1 [MBX-4992],SI,[1]; MCMV Smith,>33
same,pIC50,[1]; Murid betaherpesvirus 1,5.35
same,"virus infection, drug removed",[2]; cells pre-incubated and compound sequentially removed,do not significantly impact infection
same,"virus infection, drug not removed or added back","[2]; cells pre-treated, drugs not removed or added back to washed-out cells",significantly inhibited virus infection
same,SI,[3],<4
same,pIC50,[3]; Caviid betaherpesvirus 2,< 4.52
same,SI,[4],<2
same,pIC50,[4]; Human alphaherpesvirus 1,< 4.52
